Test results: PMC8102479, “Structural and mechanistic insights into the bifunctional HISN2 enzyme catalyzing the second and third steps of histidine biosynthesis in plants” (Scientific Reports, 2021)

What was measured:
MtHISN2 [1] = target: T1, MtHISN2 (Medicago truncatula, UniProt A0A072U2X9, K109A); test: isothermal titration calorimetry; assay type: binding
T1 construct: gene MTR_7g084480; N-truncated at Val49 (chloroplast transit peptide removed), residues 49-283, N-terminal Ser-Asn-Ala linker left, His6-tag cleaved with TEV; E. coli BL21 Gold; both PRA-CH and PRA-PH domains
From the text: (§1) isothermal titration calorimetry on MtHISN2 | Four mutants within the PRA-CH domain (K109A, T112V, S113A, and H143E)

MtHISN2 [2] = target: T2, MtHISN2 (Medicago truncatula, UniProt A0A072U2X9, S113A); test: isothermal titration calorimetry; assay type: binding
T2 construct: gene MTR_7g084480; N-truncated at Val49 (chloroplast transit peptide removed), residues 49-283, N-terminal Ser-Asn-Ala linker left, His6-tag cleaved with TEV; E. coli BL21 Gold; both PRA-CH and PRA-PH domains
From the text: as §1

MtHISN2 [3] = target: T3, MtHISN2 (Medicago truncatula, UniProt A0A072U2X9, T112V); test: isothermal titration calorimetry; assay type: binding
T3 construct: gene MTR_7g084480; N-truncated at Val49 (chloroplast transit peptide removed), residues 49-283, N-terminal Ser-Asn-Ala linker left, His6-tag cleaved with TEV; E. coli BL21 Gold; both PRA-CH and PRA-PH domains
From the text: as §1

MtHISN2 [4] = target: T4, MtHISN2 (Medicago truncatula, UniProt A0A072U2X9); test: ProFAR formation monitored at […] nm; assay type: biochemical
T4 construct: gene MTR_7g084480; N-truncated at Val49 (chloroplast transit peptide removed), residues 49-283, N-terminal Ser-Asn-Ala linker left, His6-tag cleaved with TEV; E. coli BL21 Gold; both PRA-CH and PRA-PH domains

MtHISN2 [5] = target: T5, MtHISN2 (Medicago truncatula, UniProt A0A072U2X9, R183E); test: isothermal titration calorimetry; assay type: binding
T5 construct: gene MTR_7g084480; N-truncated at Val49 (chloroplast transit peptide removed), residues 49-283, N-terminal Ser-Asn-Ala linker left, His6-tag cleaved with TEV; E. coli BL21 Gold; both PRA-CH and PRA-PH domains
Procedure: (§2) isothermal titration calorimetry on MtHISN2 | three within the PRA-PH domain (R183E, T197V, and Y240T) were tested

MtHISN2 [6] = target: T6, MtHISN2 (Medicago truncatula, UniProt A0A072U2X9, T197V); test: isothermal titration calorimetry; assay type: binding
T6 construct: gene MTR_7g084480; N-truncated at Val49 (chloroplast transit peptide removed), residues 49-283, N-terminal Ser-Asn-Ala linker left, His6-tag cleaved with TEV; E. coli BL21 Gold; both PRA-CH and PRA-PH domains
Procedure: as §2

MtHISN2 [7] = target: T7, MtHISN2 (Medicago truncatula, UniProt A0A072U2X9, Y240T); test: isothermal titration calorimetry; assay type: binding
T7 construct: gene MTR_7g084480; N-truncated at Val49 (chloroplast transit peptide removed), residues 49-283, N-terminal Ser-Asn-Ala linker left, His6-tag cleaved with TEV; E. coli BL21 Gold; both PRA-CH and PRA-PH domains
Procedure: as §2

MtHISN2 [8] = target: T4, MtHISN2; test: isothermal titration calorimetry; assay type: binding
MtHISN2 [9] = target: T8, MtHISN2 (Medicago truncatula, UniProt A0A072U2X9, H143E); test: isothermal titration calorimetry; assay type: binding
T8 construct: gene MTR_7g084480; N-truncated at Val49 (chloroplast transit peptide removed), residues 49-283, N-terminal Ser-Asn-Ala linker left, His6-tag cleaved with TEV; E. coli BL21 Gold; both PRA-CH and PRA-PH domains

[10] = target: HISN2 enzyme from Medicago truncatula (MtHISN2), construct N-truncated at Val49 (Medicago truncatula); test: SEC; HiLoad Superdex 200 16/60; 25 mM Hepes-NaOH pH 7.5, 100 mM KCl, 50 mM NaCl, 100 uM ZnCl2, 1 mM TCEP; elution profile not shown

T4 sequence (A0A072U2X9 entry or part of it): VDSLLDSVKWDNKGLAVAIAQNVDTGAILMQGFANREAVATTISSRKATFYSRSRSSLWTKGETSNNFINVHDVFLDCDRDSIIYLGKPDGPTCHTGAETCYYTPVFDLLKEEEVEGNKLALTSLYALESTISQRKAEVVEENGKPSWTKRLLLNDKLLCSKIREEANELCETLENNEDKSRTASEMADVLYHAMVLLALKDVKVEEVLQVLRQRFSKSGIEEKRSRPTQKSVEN
T6 sequence (A0A072U2X9 entry or part of it T197V): as the sequence (A0A072U2X9 entry or part of it) above, with T149V counted along it
T1 sequence (A0A072U2X9 entry or part of it K109A): as the sequence (A0A072U2X9 entry or part of it) above, with K61A counted along it
T7 sequence (A0A072U2X9 entry or part of it Y240T): as the sequence (A0A072U2X9 entry or part of it) above, with Y192T counted along it
T2 sequence (A0A072U2X9 entry or part of it S113A): as the sequence (A0A072U2X9 entry or part of it) above, with S65A counted along it
T5 sequence (A0A072U2X9 entry or part of it R183E): as the sequence (A0A072U2X9 entry or part of it) above, with R135E counted along it
T8 sequence (A0A072U2X9 entry or part of it H143E): as the sequence (A0A072U2X9 entry or part of it) above, with H95E counted along it
T3 sequence (A0A072U2X9 entry or part of it T112V): as the sequence (A0A072U2X9 entry or part of it) above, with T64V counted along it

Row | Kd (MtHISN2 [1]) | Kd (MtHISN2 [2]) | Kd (MtHISN2 [3]) | inhibition at 100 µM (MtHISN2 [4]) | Kd (MtHISN2 [5]) | Kd (MtHISN2 [6]) | Kd (MtHISN2 [7]) | Kd (MtHISN2 [8]) | Kd (MtHISN2 [9]) | stoichiometry N [10] | Molecule
1 | 71 ± 18 µM | 64 ± 12 µM | 75 ± 8 µM | > 60% | 31 ± 3 µM | 29 ± 3 µM | 52 ± 9 µM | 47 ± 6 µM | 68 µM | – | Nc1ncnc2c1ncn2[C@@H]1O[C@H](COP(=O)(O)O)[C@@H](O)[C@H]1O [AMP]
2 | – | – | – | – | – | – | – | – | – | 2 | HISN2 enzyme from Medicago truncatula (MtHISN2), construct N-truncated at Val49
